Measurements taken from patent publication US20260124240A1, “DRUG RESISTANT IMMUNE CELLS” (The Regents of the University of California, priority 2022, published 2026).

Experiments:
[1] = test system: Heterozygous BCL2 G101V iPSC-derived NK cells (BCL2G101V/WT); assay: Venetoclax dose response / cell survival assay on heterozygous BCL2 G101V iPSC-derived NK cells; format: cell-based; settings: Homo sapiens, viability at 72 hours post treatment
Experimental: (§1) FIGS. 12A-12H: BCL2 G101V iPSC-derived NK cells are resistant to venetoclax and anti-apoptotic BCL2 family member levels are unchanged. Dose response curves for WT iPSC-derived NK (FIG. 12A), Homozygous BCL2 G101V iPSC-derived NK cells (FIG. 12B), and Heterozygous BCL2 G101V iPSC-derived NK cells (FIG. 12C) treated with Venetoclax and assessed for viability at 72 hours post treatment. FIG. 12D. Dose response for WT iPSC-derived NK and homozygous BCL2 G101V iPSC-derived NK cells treated with dexamethasone and assessed for viability at 72 hours post treatment. […] real-time PCR analysis of BCL2 (FIG. 12E), BCL-XL (FIG. 12F), and MCL1 (FIG. 12G) mRNA level for WT iPSC-derived NK and BCL2 G101V iPSC-derived NK cells vehicle or venetoclax treated. FIG. 12H. Immunoblots for BCL2, and BCL-XL protein levels with a β-actin loading control.
(§2) Resistance to venetoclax of the heterozygous and homozygous BCL2 G101V iPSC-derived NK cells was tested in cell survival assays.

[2] = test system: luciferase-expressing, venetoclax-resistant MOLM-13 cells; assay: Mouse xenograft study (MOLM13 AML); format: in vivo; settings: NSG mice, 1×10^7 NK cells IV, venetoclax 50 mg/kg daily for 21 days where given
Experimental: FIG. 15: A schema of NK cell dosing regimen and venetoclax treatment plan. NSG mice were inoculated IV with 2.5×10^5 luciferase-expressing MOLM13 cells, and tumor engraftment was assessed by IVIS imaging 4 days later for baseline pre-treatment grouping. On day 4 after tumor inoculation, mice were either left untreated or treated with 1×10^7 WT iPSC-derived NK cells or BCL2 G101V iPSC-derived NK cells alone or in combination with venetoclax for 21 days. NK cells were supported by injection of IL-15 for the first week and IL-2 for three weeks with IVIS imaging done as indicated to monitor tumor progression.
Eight-week-old NOD/SCID/γc−/− (NSG) mice (Jackson Laboratories, n=5 per group) were used for in vivo experiments. Mice received 2.5×10^5 luciferase-expressing MOLM13 tumor cells intravenously. Mice were sub-lethally irradiated (225 cGy) 4 days after tumor engraftment. 107 NK cells/mouse were injected IV on the day of irradiation. NK cells were supported by the injection of IL-2 and IL-15 as reported previously 27, 28. […] Tumor burden was determined by BLI using the Xenogen IVIS Imaging system. […]
To evaluate the anti-tumor activity of BCL2G101V/G101V NK cells in vivo, BCL2G101V/G101V iPSC-derived NK cell killing of MOLM13 AML cells was assessed in a mouse xenograft tumor model. […] Tumor growth was monitored by bioluminescent imaging (BLI) (FIG. 16A).

[3] = test system: Homozygous BCL2 G101V iPSC-derived NK cells (1F6); assay: Venetoclax dose response / cell survival assay on homozygous BCL2 G101V (1F6) iPSC-derived NK cells; format: cell-based; settings: Homo sapiens; homozygous BCL2G101V/G101V (1F6) NK cells; viability at 72 hours post treatment; read-out: EC50 where 50% of the NK cells are killed by venetoclax
Experimental: as §1, §2

[4] = dose of 400 mg/day; cited from earlier work
[5] = test system: WT MOLM13 cells; assay: Venetoclax sensitivity of WT MOLM13 cells; format: cell-based; settings: Homo sapiens, MOLM-13
Excerpt: (§3) For longer-term assays to examine the ability of BCL2G101V/G101V iPSC-derived NK cells to mediate effective killing of venetoclax-resistant AML cells, MOLM13 cells that are venetoclax-resistant were generated.

[6] = test system: WT iPSC-derived NK cells (BCL2WT/WT); assay: Venetoclax dose response / cell survival assay on WT iPSC-derived NK cells; format: cell-based, human
Experimental: as §1, §2

[7] = test system: venetoclax-resistant MOLM13 cells; assay: Venetoclax sensitivity of venetoclax-resistant MOLM13 cells; format: cell-based
Experimental: The MOLM13 cells lines were cultured continuously in increasing concentrations of venetoclax over 6 weeks to generate and select for venetoclax-resistant cells. The resulting cells could be maintained in 3 μM venetoclax without toxicity. The resistant cells were cultured continuously in the presence of venetoclax.
as §3

With `CC1(C)CCC(CN2CCN(c3ccc(C(=O)NS(=O)(=O)c4ccc(NCC5CCOCC5)c([N+](=O)[O-])c4)c(Oc4cnc5[nH]ccc5c4)c3)CC2)=C(c2ccc(Cl)cc2)C1` [venetoclax] the EC50 [1] was 3550 nM, the median survival [2] was 18.8 days and the EC50 [3] was 6020 nM. The serum concentration [4] was 2300 nM, the IC50 [5] was 24 nM and the EC50 ([6]; Homo sapiens, WT iPSC-derived NK cells, viability at 72 hours post treatment, read-out: EC50 where 50% of the NK cells are killed by venetoclax) was 63.7 nM. For the same compound, the “toxicity to unengineered NK cells” value ([6]; at serum concentration of 2.3 μmol/L) was “toxic”, the “increased resistance to venetoclax compared to WT MOLM13 cells” value ([7]; venetoclax-resistant MOLM13) was “over 100 fold” and the “venetoclax concentration in which resistant cells could be maintained without toxicity” value ([7]; venetoclax-resistant MOLM13, selected over 6 weeks) was 3 µM.
